US20250099553A1, “COMPOSITION AND METHODS FOR MODULATION OF ELOVL2” (YOUHEALTH BIOTECH, LIMITED, priority 2018, published 2025)

Tests used:
human fibroblast cells = system: human fibroblast cells
Experimental: The human RPE cells were primarily derived from healthy donors. The human fibroblast cells are purchased from ATCC (WI-38, ATCC® CCL-75) human fibroblasts were maintained in Dulbecco's Modified Eagle Medium (DMEM) supplemented with 10% fetal bovine serum and 50 U/ml penicillin-streptomycin. Human RPE cells were cultured with DMEM/F-12 (1:1) supplemented with 10% fetal bovine serum and 50 U/ml penicillin-streptomycin.
RNA was extracted by RNeasy Mini Kit (QIAGEN, 74104) and the RNase-Free DNase Set (QIAGEN, 79254) was used to ensure no DNA contamination. Reverse transcription was performed by High Capacity cDNA Reverse Transcription Kit (ABI, 4368814). SYBR-qPCR was performed by Power SYBR® Green PCR Master Mix (ABI, 4367659). All primers were designed using PrimerPremier5 and synthesized from Integrated DNA Technologies.

[1] = system: Elovl2 knock-down human RPE cells (KE); assay: Drug rescue of Elovl2 knockdown (KE) human RPE cells, AMD phenotype (immunofluorescence, qPCR); assay type: cell-based; conditions: 5 mM nicotinamide, 48 h, FIGS. 5I-5J
Experimental: For Elovl2 knockdown, lentivector (pLL3.7-shElovl2) exogenously expressing shRNA (5′-[…]-3′) was made and transfected into 293T cells (ATCC) using Lipofectamin 3000 reagent (Thermo Fisher) to obtain lentivirus. To build the Elovl2-knockdown cell line, human RPE cells (seeded a night ahead in a concentration of 5*10^5 cells/well) in a 6-well plate were infected with the lentivirus containing Elovl2-shRNA for 24h, followed by 24 h of equilibration. Drug treatments were performed at the time of 48 h post-infection. To rescue the Elovl2 knockdown cells, 10 μg/ml curcumin (Sigma, C7727) or 5 mM nicotinamide (Sigma, N0636) or DMSO were added in the cell culture medium and the cells were treated for 48 h.
Murine tissue sample were freshly collected upon perfusion, followed by overnight PFA fixation and sucrose dehydration. Human fibroblast cells, human RPE cells and murine primary cells were fixed with 4% PFA for 1 h. To perform immunofluorescence, the slide was rinsed in PBS for 5 minutes, blocked in blocking buffer (PBS with 1% BSA, 0.1% Tween-20) for 20 minutes at room temperature (RT), and incubated with primary antibody in blocking buffer for 1 hour at RT. After 3 washes with 0.1% Tween-20 in PBS, the slide was incubated with secondary antibody in blocking buffer for 1 hour at RT. The slides were mounted with DAPI-Vectashield solution (Vector laboratories). Images were taken with a confocal microscope (LSM 780). To estimate the mitochondrial conditions, human RPE cells and murine primary cells were incubated with either MitoSOX (5 uM) according to manufacturer's instructions.

SMILES | methylation on biological aging marker Elovl2 (human fibroblast cells; H2O2 treated human fibroblast cells, MeDip-qPCR) | senescent markers (human fibroblast cells; H2O2 treated human fibroblast cells, FIGS. 1D-1E, 6E-6F) | expression of Elovl2 (human fibroblast cells; after H2O2 treatment, groups with DNMT1, DNMT3A and DNMT3B knockdown but not CHD4 knockdown, FIG. 6H) | AMD markers [1] | expression of cellular senescence genes [1] | mitochondrial dysfunction [1]
OO [H2O2, hydrogen peroxide] | Increased methylation | increase of senescent markers | decreased |  |  | 
NC(=O)c1cccnc1 [nicotinamide] |  |  |  | reduction of AMD markers | reversed the abnormal expression of cellular senescence genes | reduced mitochondrial dysfunction
